Test results published in patent US20030013658A1, “Small peptides and methods for treatment of asthma and inflammation” (Hisatek, LLC, priority 1997, published 2003).
Entries after “also recorded” stand apart in the source; their conditions may differ. Where no end group is shown, it is not given here. The star is where a group is joined. For = O=C*

Tested on: OVA-sensitized/challenged mice
Assay: OVA-induced bronchial asthma mouse model (Standard/Resolution protocols, 1-3 month), airway eosinophils and mucus plugs
Type: in vivo
Excerpt: The OVA-induced Bronchial Asthma Mouse Model for Inhibition of Mast Cell Degranulation
Reagents: Crystalline OVA was obtained from Pierce Chem. Co. (Rockford, Ill.) aluminum potassium sulfate (alum) from Sigma Chem. Co. (St. Louis, Mo.), pyrogen-free distilled water from Baxter, Healthcare Corporation (Deerfield, Ill.), 0.9% sodium chloride (normal saline) from Lymphomed (Deerfield, Ill.) and Trappsol™ HPB-L100 (aqueous hydroxypropyl beta cyclodextrin; 45 wt/vol % aqueous solution) from Cyclodextrin Technologies Development, Inc. (Gainesville, Fla.). The OVA (500 μg/ml in normal saline) was mixed with equal volumes of 10% (wt/vol) alum in distilled water. The mixture (pH 6.5 using 10 N NaOH) after incubation for 60 minutes at room temperature underwent centrifugation at 750 g for 5 minutes; the pellet was resuspended to the original volume in distilled water and used within one hour.
The selective 5-lipoxtgenase inhibitor, Zileuton (N-[1-benzo[b]thien-2-ylethyl]-N-hydroxyurea; J. Pharmacol Exp Ther. 1991; 256: 929-937), was kindly provided by Drs. Bell and George W. Carter (Abbott Laboratories, Abbott Part, Ill.). Zileuton was dissolved in Trappsol.™. Histatek, Inc. (Seattle, Wash.) provided the mast cell degranulation inhibitor, f-Met-Leu-Phe-Phe (“HK-X”).
Female BALB/c […] (6-8 wk of age at purchase; D and K, Seattle Wash.) were housed under conventional conditions for the studies.
Allergen Immunization/Challenge Protocols: Mice received an i.p. injection of 0.2 ml (100 μg) of OVA with alum on the different protocols of Standard (FIG. 5A) and Resolution (FIG. 5B) (J. Exp Med. 1996; 184: 1483-1494). According to the different protocols, mice were anesthetized with 0.2 ml i.p. of ketamine (0.44 mg/ml)/xylazine (6.3 mg/ml) in normal saline before receiving an intranasal (i.n.) does of 100 μg OVA in 0.05 ml normal saline and an i.n. dose of 50 μg OVA in 0.05 ml normal saline separately on different days. Two control groups were used. Accordingly, the first group received normal saline with alum i.p. and normal saline without alum i.n.; the second group received OVA with alum i.p., OVA without alum i.n., and normal saline, alone.
The trachea and left lung (the right lung is used for bronchoalveolar lavage (“BAL”)) were obtained and fixed in 10% neutral formaldehyde solution at room temperature for 6˜15 h. After being embedded in paraffin, the tissues were cut into 5-um sections and processed with the different staining or immunolabling further. Discombe's eosinophil staining was used for counting the cell numbers with the counterstain of methylene blue. The eosinophil number per unit airway area (2,200 μm^2) was determined by morphometry (J. Pathol. 1992; 166: 395-404; Am Rev Respir Dis. 1993; 147:448-456). Fibrosis was identified with the Masson's trichrome staining. Airway mucus was identified by the following staining method: methylene blue, hematoxylin and eosin, mucicarmine, alcian blue, and alcian blue/periodic acid-Schiff (PAS) reaction (Troyer, H., “Carbohydrates” in Principles and Techniques of Histochemistry, Little, Brown and Company, Boston, Mass., 1980: 89-121; Sheehan, D. C., et al., “Carbohydrates” in Theory and Practice of Histotechnology, Battle Press, Columbus, Ohio, 1980: 159-179) Mucin was stained with mucicarmine solution; metanil yellow counterstain was employed. Acidic mucin and sulfated mucosubstances were stained with alcian blue, pH 2.5; nuclear fast red counterstain was used. Neutral and acidic mucosubstances were identified by alcian blue, pH 2.5, and PAS reaction. The degree of mucus plugging of the airways (0.5-0.8 mm in diameter) was also assessed by morphometry. The percent occlusion of airway diameter by mucus was classified on a semiquantitative scale from 0 to 4+ as described in Figure Legends. The histologic and morphometric analyses were performed by individuals blinded to the protocol design. […]

“f-Met-Leu-Phe-Phe (For-MLFF) [Example 9]” was tested, and the “AIRWAY INFLUX OF EOSINOPHILS (%)” value (1 month) was 14.20%, the “% of plug of airway” value (28 days) was 19% and the “PERCENTAGE OF EOSINOPHILS IN AIRWAY TISSUE” value (28 days of treatment) was 14.2%. For the same substance, the “MUCUS PLUG SCORE IN AIRWAYS” value (28 days, semiquantitative scale 0 to 4+) was 1.4, the “mucus accumulation / mucus release in airway” value (HK-X given before i.n. OVA, morphometry, FIG. 6, listed as HK-X) was “inhibits mucus accumulation in the airway; also recorded: airway mucus release in the airway (AW) lumen is markedly reduced” and the “infiltration of the interstitial tissue by eosinophils” value (compared to OVA-challenge alone, FIG. 6C) was “infiltration of the interstitial tissue by eosinophils is also reduced”. For the same substance, the “formation of mucus plugs / mucus production in small airways” value (doses of 5 μg/kg and 10 μg/kg, FIG. 7) was “Both doses significantly reduce the mucus production in small airways”, the “reduction of airway eosinophils compared with Zileuton” value (one month) was “reduced eosinophils comparably at one month” and the “reduction of airway eosinophils compared with Zileuton” value (two and three months) was “much more beneficially at two and three months”.
